Assay results reported in patent US20240261267A1, “METHODS FOR TREATING MULTIPLE SCLEROSIS” (Vanda Pharmaceuticals Inc., priority 2021, published 2024).

System: primary mouse OPCs
Test: differentiation assay, immunocytochemical staining for O4 and MBP
Type: cell-based
Settings: for MBP expression / O4 expression: normalized to DAPI and negative control
Description: The effects of ponesimod, a selective S1P1 receptor agonist, and A971432, a selective S1P5 receptor agonist, on oligodendrocyte precursor cell (OPC) migration and differentiation were evaluated. Nine concentrations were tested (logarithmic dilutions ranging from 0.3 nM to 3000 nM, n=6 per concentration). Fingolimod phosphate (P-FTY720, 3000 nM, n=6) was included as a positive control, 0.1% DMSO was included (min.one/plate) as a negative control. Primary mouse OPCs were harvested on postnatal day 0 or 1 and mixed glia cultures were maintained for 14 days. Primary OPCs were then purified using the shake-off method, and used for either a migration assay, or a differentiation assay, as detailed below. To harvest primary mouse OPCs, cortices are isolated from mouse pups on postnatal day 0 or 1 and placed in ice-cold Dulbecco's Modified Eagle Medium (DMEM) (Sigma Aldrich, Overijse, BE). The cortices are homogenized and centrifuged for 5 minutes at 300 G. The supernatant is removed, and a papain solution is added for 30 minutes (125 uL DMEM solution per brain containing 20 units/ml papain and 40 μg/ml DNase, at 37 degrees). Digestion is inactivated by adding 9 ml cold DMEM. The solution is then centrifuged for 5 minutes at […]. The supernatant is carefully removed, and the pellet is resuspended in 2-5 ml culture medium (DMEM with 10% fetal calf serum (Biowest, Nuaillé, FR) and 1% pen/strep (Sigma Aldrich, Overijse, BE)). […] Cell suspension is divided over PLL (Sigma Aldrich, Overijse, BE)-coated flasks (2 brains per flask) and DMEM is added to a final volume of 10 ml. DMEM is replaced on day 4, 7, and 11. On day 7 and 11, insulin (Sigma Aldrich, Overijse, BE) is added to the medium (5μg/ml). On day 14, OPCs are separated from astrocytes by the shake-off method: flasks are placed on a shaker for 45 minutes at 75 rpm (37 degrees). The medium is then aspirated and discarded, and 10 ml fresh culture medium is added. Flasks are then returned to the shaker for 16-18 hours shaking at 280 rpm. Next, the medium is isolated, and this cell suspension is placed in a plastic petri dish and incubated for 25 minutes. The medium, which contains the OPCs, is then collected and centrifuged for 5 minutes at 300 G. Cells are then resuspended in SATO differentiation medium containing 2% horse serum, 2% B-27, 50 U/ml P/S, 2.4 μl/ml transferrin, 1.04 μl/ml L-thyroxine, 1 μl/ml putrescin, 1 μl/ml progesterone, 1 μl/ml TIT, 0.74 μl/ml sodium selenite and 0.5 μl/ml insulin (all from Sigma-Aldrich, Overijse, BE). […] After shake-off, cells are reset for their differentiation status: one hour after plating, cells are treated with platelet-derived growth factor (PDGF, 10 ng/ml, Peprotech EC Ltd, London, UK) and fibroblast growth factor (fgf, 10 ng/ml, Peprotech EC Ltd, London, UK). Twenty-four hours after plating, cells are treated again with fgf (10 ng/ml). 150,000 cells are plated onto glass coverslips in 24-well plates. […] Aspecific binding was blocked for 30 minutes with 1% bovine serum albumin (BSA) in 0.1% PBS-T, followed by incubation with primary antibodies (O4:R&D systems, Minneapolis, USA, MBP:Merck, Overijse, BE) for four hours at room temperature. After three washing steps with PBS (Lonza group, Bornem, BE), cells are incubated with Invitrogen Alexa Fluor 488 (Alexa 488) or Invitrogen Alexa Fluor 555 (Alexa 555) conjugated secondary antibody for one hour (Life technologies, Carlsbad, USA). […] Sigma-Aldrich, Overijse, […]). Coverslips are mounted with Dako mounting medium (Dako, Carpinteria, USA) and analyzed using a fluorescence microscope (Leica DM2000 LED). Images are quantified using Fiji, ImageJ software. Ponesimod and […] effect on primary mouse OPC differentiation using immunocytochemical staining for O4 and MBP, markers of early and late differentiation stages, respectively, was measured. Fingolimod phosphate, which served as a positive control in the migration assay, was included as well, 0.1% DMSO was included as a negative control. […]

SMILES	MBP expression (1000 nM)	O4 expression (1000 nM)	O4 expression (3000 nM)	OPC differentiation (staining for O4 and MBP) (high concentration 1000 nM)	MBP expression (300 nM)	O4 expression (300 nM)	OPC differentiation (staining for O4 and MBP) (high concentrations 300 nM-1000 nM)
O=C(O)C1CN(Cc2ccc(OCc3ccc(Cl)c(Cl)c3)cc2)C1 [A97]	significant increase	marginally increased	marginally increased	modest increases	–	–	–
CCC/N=C1\S/C(=C\c2ccc(OC[C@H](O)CO)c(Cl)c2)C(=O)N1c1ccccc1C [ponesimod, (R)-5-[3-chloro-4-(2,3-dihydroxy-propoxy)-benz[Z]ylidene]-2-([Z]-propylimino)-3-o-tolyl-thiazolidin-4-one]	did not show significantly increased MBP expression	marginally increased	–	–	significant increase	did not show significantly increased O4 expression	Enhanced OPC differentiation
